From ChEMBL document CHEMBL3714742, “Pyrimido (4,5-b) indole derivatives” (2003)
The source made the active and inactive calls. The rule behind the calls is not given here.

What was measured:
[1] = molecular target: T1, Dual specificity mitogen-activated protein kinase kinase 7 (Homo sapiens, UniProt O14733); test: Inhibition of GST-tagged human MKK7 expressed in Escherichia coli (BL21(DE3) pLysS) co-expressing human MEKK catalytic domain using biotinylated and GST-tagged rat GST-KN-SAPKalpha substrate incubated for 1 hr by time-resolved fluorescence based assay
T1 sequence (O14733 whole entry): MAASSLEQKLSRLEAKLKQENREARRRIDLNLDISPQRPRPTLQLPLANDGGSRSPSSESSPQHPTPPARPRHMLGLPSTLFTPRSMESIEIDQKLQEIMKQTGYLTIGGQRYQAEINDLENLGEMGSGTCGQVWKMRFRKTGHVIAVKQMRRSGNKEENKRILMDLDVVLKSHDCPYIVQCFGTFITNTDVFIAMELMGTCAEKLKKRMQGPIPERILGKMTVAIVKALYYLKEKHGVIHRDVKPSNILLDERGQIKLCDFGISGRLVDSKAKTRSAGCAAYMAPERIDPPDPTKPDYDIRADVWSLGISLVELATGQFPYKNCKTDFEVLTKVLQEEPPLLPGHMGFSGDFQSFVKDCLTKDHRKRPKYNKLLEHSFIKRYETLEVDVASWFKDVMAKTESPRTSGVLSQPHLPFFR

[2] = system: Mus musculus; test: Inhibition of anti-CD3 antibody-induced IL2 production in Balb/c mouse dosed intravenously 5 mins before anti-CD3 antibody injection and measured 2 hrs post-challenge by ELISA; format: functional, organism-based
[3] = system: Mus musculus; test: Inhibition of anti-CD3 antibody-induced IL4 production in Balb/c mouse dosed intravenously 5 mins before anti-CD3 antibody injection and measured 2 hrs post-challenge by ELISA; format: functional, organism-based
[4] = system: Mus musculus; test: Inhibition of anti-CD3 antibody-induced IFNgamma production in Balb/c mouse dosed intravenously 5 mins before anti-CD3 antibody injection and measured 2 hrs post-challenge by ELISA; format: functional, organism-based
[5] = molecular target: T2, Dual specificity mitogen-activated protein kinase kinase 4 (Homo sapiens, UniProt P45985); test: Inhibition of GST-tagged human MKK4 expressed in Escherichia coli (BL21(DE3) pLysS) co-expressing human MEKK catalytic domain using biotinylated and GST-tagged rat GST-KN-SAPKalpha substrate incubated for 2 hrs by time-resolved fluorescence based assay
T2 sequence (P45985 whole entry): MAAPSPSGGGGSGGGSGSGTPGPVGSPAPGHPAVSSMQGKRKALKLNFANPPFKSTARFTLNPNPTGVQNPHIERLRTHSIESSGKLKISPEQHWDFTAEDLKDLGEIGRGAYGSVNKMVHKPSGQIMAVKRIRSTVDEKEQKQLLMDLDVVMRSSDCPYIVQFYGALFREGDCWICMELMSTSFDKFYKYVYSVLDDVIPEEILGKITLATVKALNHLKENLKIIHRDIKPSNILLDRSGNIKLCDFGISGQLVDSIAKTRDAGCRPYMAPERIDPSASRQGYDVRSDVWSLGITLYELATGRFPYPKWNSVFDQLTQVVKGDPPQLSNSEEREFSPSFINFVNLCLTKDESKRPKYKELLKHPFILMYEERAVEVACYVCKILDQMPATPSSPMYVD

Structure (SMILES) | IC50 [1] [nM] | IC50 [5] [nM] | inhibition [2] | inhibition [3] | inhibition [4]
Cc1nc(NC(C)CO)c2c(n1)[nH]c1ccc(O)cc12 (stereo unspecified) | < 1000 | < 1000 | Active | Active | Active
Cc1nc(N2CCCCC2)c2c(n1)[nH]c1ccc(C(=O)O)cc12 | < 1000 | < 1000 | Active | Active | Active
Cc1nc(N2CCCC(C)C2)c2c(n1)[nH]c1ccc(O)cc12 (stereo unspecified) | 1000 | – | Active | Active | Active
COC(=O)c1ccc2[nH]c3nc(C)nc(N4CCCCC4)c3c2c1 | < 1000 | – | Active | Active | Active
NC(=O)c1ccc2[nH]c3ncnc(N4CCCC4)c3c2c1 | < 1000 | – | Active | Active | Active
Cc1nc(N2CCC(C)CC2)c2c(n1)[nH]c1ccc(O)cc12 | < 1000 | – | Active | Active | Active
NC(=O)c1ccc2[nH]c3ncnc(NCCO)c3c2c1 | < 1000 | – | Active | Active | Active
Cc1nc(NC(C)CO)c2c(n1)[nH]c1ccc(OCc3ccccc3)cc12 (stereo unspecified) | < 1000 | – | Active | Active | Active
NC(=O)c1ccc2[nH]c3ncnc(N4CCC(O)(Cc5ccccc5)CC4)c3c2c1 | < 1000 | – | Active | Active | Active
CC(C)N(C)c1nc(N)nc2[nH]c3ccc(O)cc3c12 | < 1000 | – | Active | Active | Active
Nc1nc(N2CCC(Br)CC2)c2c(n1)[nH]c1ccc(O)cc12 | < 1000 | – | Active | Active | Active
CC(C)(C)OC(=O)N1CCC(Nc2ncnc3[nH]c4ccc(O)cc4c23)CC1 | < 1000 | – | Active | Active | Active
CC1CCCN(c2ncnc3[nH]c4ccc(C(N)=O)cc4c23)C1 (stereo unspecified) | < 1000 | – | Active | Active | Active
NC(=O)c1ccc2[nH]c3ncnc(N4CCC(CO)CC4)c3c2c1 | < 1000 | – | Active | Active | Active
Nc1nc(NCCO)c2c(n1)[nH]c1ccc(O)cc12 | < 1000 | – | Active | Active | Active
Nc1nc(N2CCCCC2)c2c(n1)[nH]c1ccc(C(=O)O)cc12 | < 1000 | – | Active | Active | Active
Oc1ccc2[nH]c3ncnc(N4CCCC4)c3c2c1 | < 1000 | – | Active | Active | Active
NCc1ccc2[nH]c3nc(N)nc(N4CCCCC4)c3c2c1 | 1000 | – | Active | Active | Active
OCCC1CCCN(c2ncnc3[nH]c4ccc(O)cc4c23)C1 (stereo unspecified) | < 1000 | – | Active | Active | Active
Nc1nc(N2CCC3CCCCC3C2)c2c(n1)[nH]c1ccc(O)cc12 (stereo unspecified) | < 1000 | – | Active | Active | Active
OCC1CCN(c2ncnc3[nH]c4ccc(O)cc4c23)CC1 | < 1000 | – | Active | Active | Active
COCCNc1ncnc2[nH]c3ccc(O)cc3c12 | < 1000 | – | Active | Active | Active
Nc1nc(N(Cc2ccccc2)Cc2ccccc2)c2c(n1)[nH]c1ccc(O)cc12 | > 10000 | – | Active | Active | Active
Oc1ccc2[nH]c3ncnc(N4CCC(O)C4)c3c2c1 (stereo unspecified) | < 1000 | – | Active | Active | Active

Second part, led by results:

IC50 [1] [nM] | IC50 [5] [nM] | Structure (SMILES) | inhibition [2] | inhibition [3] | inhibition [4]
< 1000 | < 1000 | Cc1nc(N2CCCCC2)c2c(n1)[nH]c1ccc(C(N)=O)cc12 | Active | Active | Active
< 1000 | – | NC(=O)c1ccc2[nH]c3ncnc(N4CCCCCC4)c3c2c1 | Active | Active | Active
< 1000 | – | CC(CO)Nc1ncnc2[nH]c3ccc(O)cc3c12 (stereo unspecified) | Active | Active | Active
< 1000 | – | CC(=O)NC1CCN(c2ncnc3[nH]c4ccc(C(N)=O)cc4c23)CC1 | Active | Active | Active
< 1000 | – | CC(CO)Nc1ncnc2[nH]c3ccc(C(N)=O)cc3c12 (stereo unspecified) | Active | Active | Active
< 1000 | – | NC(=O)c1ccc2[nH]c3nc(N)nc(N4CCCCC4)c3c2c1 | Active | Active | Active
< 1000 | – | NC(=O)c1ccc2[nH]c3ncnc(N4CCCC(N)C4)c3c2c1 (stereo unspecified) | Active | Active | Active
< 1000 | – | NC(=O)C1CCN(c2ncnc3[nH]c4ccc(O)cc4c23)CC1 | Active | Active | Active
< 1000 | – | Oc1ccc2[nH]c3ncnc(NC4CCCC4)c3c2c1 | Active | Active | Active
< 1000 | – | NC(=O)c1ccc2[nH]c3ncnc(NC4CCCCC4)c3c2c1 | Active | Active | Active
< 1000 | – | NC1CCCN(c2ncnc3[nH]c4ccc(O)cc4c23)C1 (stereo unspecified) | Active | Active | Active
< 1000 | – | Oc1ccc2[nH]c3ncnc(N4CCCC(O)C4)c3c2c1 (stereo unspecified) | Active | Active | Active
< 1000 | < 1000 | Nc1nc(N2CCCCCC2)c2c(n1)[nH]c1ccc(O)cc12 | Active | Active | Active
< 1000 | – | OC[C@H](Cc1ccccc1)Nc1ncnc2[nH]c3ccc(O)cc3c12 | Active | Active | Active
< 1000 | – | Oc1ccc2[nH]c3ncnc(N4CCCCC4)c3c2c1 | Active | Active | Active
< 1000 | – | CC1CCCN(c2ncnc3[nH]c4ccc(O)cc4c23)C1 (stereo unspecified) | Active | Active | Active
< 1000 | – | OCCNc1ncnc2[nH]c3ccc(O)cc3c12 | Active | Active | Active
< 1000 | – | CC1CCCN(c2nc(N)nc3[nH]c4ccc(O)cc4c23)C1 (stereo unspecified) | Active | Active | Active
< 1000 | – | N[C@H]1CCN(c2ncnc3[nH]c4ccc(O)cc4c23)C1 | Active | Active | Active
